{"source": "patent US20220347171A1", "about": "“TREATMENT OF PRURIGO NODULARIS” (TREVI THERAPEUTICS, INC., priority 2016, published 2022)", "key": {"[1]": {"test_system": "prurigo nodularis patients", "test": "TR03ext (Example 3), titrated 30 mg QD to 180 mg BID: itchy Verbal Rating Scale (VRS)", "format": "in vivo, human", "settings": "for VRS Itch Visit Mean (SD): Baseline 2.7 (0.8)", "text": "This clinical study was a Phase 2 Open Label Extension Study (clinical study TR03ext) of the randomized, double-blind, 3-parallel arm, placebo controlled dose ranging study described in Example 2. All those subjects who were randomized, and then completed Example 2 study, were eligible to participate in the Extension Study.\nThe primary endpoint was a description of the overall incidence and nature of Treatment-Emergent AEs (TEAES) during weeks 5-50 of the study. Exploratory efficacy endpoints included Change from Baseline patient reported outcome measures of Worst itch NRS, itchy VRS and ItchyQoL, by Treatment Period study visit and Baseline NRS score. There was also an assessment of any potential skin lesion changes over time using the metrics of the PAS.\nOf the 63 patients that were randomized to the study of Example 2, 36 subjects who enrolled into Extension Study entered the Treatment Period of the study and were exposed to nalbuphine HCl ER tablet administration and are the basis of the study safety population analysis.\nPatients in Extension Study were titrated over a dose range of 30 mg QD to 180 mg BID based on tolerability. The selected dose range was based on Example 2 study whereby patients were titrated from a 30 mg QD dose either to 30 mg BID, 60 mg BID, 90 mg BID, 120 mg BID or a 180 mg BID dose. The highest dose proposed was 180 mg BID (360 mg daily dose), and was well below the highest recommended daily treatment of 160 mg IV (equivalent to 960 mg oral) for the current marketed parenteral administered product.\nThe study duration for each patient was up to 52 weeks, with up to 50 weeks on study drug. The Extension Study consisted of a Treatment Period (that was followed by a Washout Safety Follow-up Period) and an Observation Period. Patients either entered directly into a drug Treatment Period (NRS >5) or a no-drug Observation Period (NRS ≤5) based on their reported NRS scores on the first Visit (Visit 1a). For up to 12 Extended Screening weeks, patients in the no-drug Observation Period could have also transitioned into the drug Treatment Period if their NRS increased to NRS >5. All patients entering the Treatment Period, whether immediately upon study entry or following a period of time in the Observation Period, were titrated to a dose ranging between 30 mg up to 180 mg BID, the highest dose tested in Example 2."}, "[2]": {"settings": "injectable formulations (IV or IM or SC); cited from earlier work"}, "[3]": {"settings": "Patients With At Least 6 Months of Treatment N = 18"}, "[4]": {"settings": "Patients With At Least 9 Months of Treatment N = 15"}}, "note": "Where a name gives a salt, the structure may show the parent alone.", "data": [{"smiles": "Oc1ccc2c3c1OC1[C@@H](O)CC[C@@]4(O)[C@@H](C2)N(CC2CCC2)CC[C@]314", "note": "(stereo partly drawn) [Nalbuphine, 17-(cyclobutylmethyl)-4,5α-epoxymorphinian-3, 6α, 14-triol, hydrochloride]", "values": [{"measurement": "VRS Itch Improvement Category 1 Grade Better, baseline to last observed value, patients (%)", "setting": "[1]; All Patients N = 36", "result": "16 (44.4%)"}, {"measurement": "VRS Itch Improvement Category 1 Grade Worse, baseline to last observed value, patients (%)", "setting": "[1]; All Patients N = 36", "result": 0}, {"measurement": "VRS Itch Improvement Category 2-4 Grades Worse, baseline to last observed value, patients (%)", "setting": "[1]; All Patients N = 36", "result": 0}, {"measurement": "VRS Itch Improvement Category 2 Grades Better, baseline to last observed value, patients (%)", "setting": "[1]; All Patients N = 36", "result": "9 (25.0%)"}, {"measurement": "VRS Itch Improvement Category 3 Grades Better, baseline to last observed value, patients (%)", "setting": "[1]; All Patients N = 36", "result": "1 (2.8%)"}, {"measurement": "VRS Itch Improvement Category 4 Grades Better, baseline to last observed value, patients (%)", "setting": "[1]; All Patients N = 36", "result": 0}, {"measurement": "VRS Itch Improvement Category No Change, baseline to last observed value, patients (%)", "setting": "[1]; All Patients N = 36", "result": "3 (8.3%)"}, {"measurement": "VRS Itch Improvement Category 1 Grade Better, baseline to last observed value, patients (%)", "setting": "[1]; Completers N = 14", "result": "5 (35.7%)"}, {"measurement": "VRS Itch Improvement Category 1 Grade Worse, baseline to last observed value, patients (%)", "setting": "[1]; Completers N = 14", "result": 0}, {"measurement": "VRS Itch Improvement Category 2-4 Grades Worse, baseline to last observed value, patients (%)", "setting": "[1]; Completers N = 14", "result": 0}, {"measurement": "VRS Itch Improvement Category 2 Grades Better, baseline to last observed value, patients (%)", "setting": "[1]; Completers N = 14", "result": "7 (50.0%)"}, {"measurement": "VRS Itch Improvement Category 3 Grades Better, baseline to last observed value, patients (%)", "setting": "[1]; Completers N = 14", "result": 0}, {"measurement": "VRS Itch Improvement Category 4 Grades Better, baseline to last observed value, patients (%)", "setting": "[1]; Completers N = 14", "result": 0}, {"measurement": "VRS Itch Improvement Category No Change, baseline to last observed value, patients (%)", "setting": "[1]; Completers N = 14", "result": "2 (14.3%)"}, {"measurement": "VRS Itch Improvement Category 1 Grade Better, baseline to last observed value, patients (%)", "setting": "[1]; [3]", "result": "6 (33.3%)"}, {"measurement": "VRS Itch Improvement Category 1 Grade Worse, baseline to last observed value, patients (%)", "setting": "[1]; [3]", "result": 0}, {"measurement": "VRS Itch Improvement Category 2-4 Grades Worse, baseline to last observed value, patients (%)", "setting": "[1]; [3]", "result": 0}, {"measurement": "VRS Itch Improvement Category 2 Grades Better, baseline to last observed value, patients (%)", "setting": "[1]; [3]", "result": "9 (50.0%)"}, {"measurement": "VRS Itch Improvement Category 3 Grades Better, baseline to last observed value, patients (%)", "setting": "[1]; [3]", "result": "1 (5.6%)"}, {"measurement": "VRS Itch Improvement Category 4 Grades Better, baseline to last observed value, patients (%)", "setting": "[1]; [3]", "result": 0}, {"measurement": "VRS Itch Improvement Category No Change, baseline to last observed value, patients (%)", "setting": "[1]; [3]", "result": "2 (11.1%)"}, {"measurement": "VRS Itch Improvement Category 1 Grade Better, baseline to last observed value, patients (%)", "setting": "[1]; [4]", "result": "6 (40.0%)"}, {"measurement": "VRS Itch Improvement Category 1 Grade Worse, baseline to last observed value, patients (%)", "setting": "[1]; [4]", "result": 0}, {"measurement": "VRS Itch Improvement Category 2-4 Grades Worse, baseline to last observed value, patients (%)", "setting": "[1]; [4]", "result": 0}, {"measurement": "VRS Itch Improvement Category 2 Grades Better, baseline to last observed value, patients (%)", "setting": "[1]; [4]", "result": "7 (46.7%)"}, {"measurement": "VRS Itch Improvement Category 3 Grades Better, baseline to last observed value, patients (%)", "setting": "[1]; [4]", "result": 0}, {"measurement": "VRS Itch Improvement Category 4 Grades Better, baseline to last observed value, patients (%)", "setting": "[1]; [4]", "result": 0}, {"measurement": "VRS Itch Improvement Category No Change, baseline to last observed value, patients (%)", "setting": "[1]; [4]", "result": "2 (13.3%)"}, {"measurement": "VRS Itch Mean (SD) Change from Baseline", "setting": "[1]; Study Week 3, N=34", "result": "−0.6 (0.9)"}, {"measurement": "VRS Itch Visit Mean (SD)", "setting": "[1]; Study Week 3, N=34", "result": "2.1 (1.1)"}, {"measurement": "VRS Itch Mean (SD) Change from Baseline", "setting": "[1]; Study Week 5, N=33", "result": "−0.9 (1.0)"}, {"measurement": "VRS Itch Visit Mean (SD)", "setting": "[1]; Study Week 5, N=33", "result": "1.8 (1.0)"}, {"measurement": "VRS Itch Mean (SD) Change from Baseline", "setting": "[1]; Study Week 9, N=30", "result": "−0.9 (0.8)"}, {"measurement": "VRS Itch Visit Mean (SD)", "setting": "[1]; Study Week 9, N=30", "result": "1.7 (0.9)"}, {"measurement": "VRS Itch Mean (SD) Change from Baseline", "setting": "[1]; Study Week 13, N=25", "result": "−1.1 (0.8)"}, {"measurement": "VRS Itch Visit Mean (SD)", "setting": "[1]; Study Week 13, N=25", "result": "1.5 (0.8)"}, {"measurement": "VRS Itch Mean (SD) Change from Baseline", "setting": "[1]; Study Week 17, N=25", "result": "−1.2 (1.2)"}, {"measurement": "VRS Itch Visit Mean (SD)", "setting": "[1]; Study Week 17, N=25", "result": "1.4 (1.0)"}, {"measurement": "VRS Itch Mean (SD) Change from Baseline", "setting": "[1]; Study Week 21, N=22", "result": "−1.2 (0.8)"}, {"measurement": "VRS Itch Visit Mean (SD)", "setting": "[1]; Study Week 21, N=22", "result": "1.4 (0.7)"}, {"measurement": "VRS Itch Mean (SD) Change from Baseline", "setting": "[1]; Study Week 26, N=21", "result": "−1.2 (0.9)"}, {"measurement": "VRS Itch Visit Mean (SD)", "setting": "[1]; Study Week 26, N=21", "result": "1.4 (0.9)"}, {"measurement": "VRS Itch Mean (SD) Change from Baseline", "setting": "[1]; Study Week 30, N=20", "result": "−1.5 (0.8)"}, {"measurement": "VRS Itch Visit Mean (SD)", "setting": "[1]; Study Week 30, N=20", "result": "1.1 (0.8)"}, {"measurement": "VRS Itch Mean (SD) Change from Baseline", "setting": "[1]; Study Week 34, N=18", "result": "−1.2 (0.8)"}, {"measurement": "VRS Itch Visit Mean (SD)", "setting": "[1]; Study Week 34, N=18", "result": "1.4 (0.6)"}, {"measurement": "VRS Itch Mean (SD) Change from Baseline", "setting": "[1]; Study Week 38, N=17", "result": "−1.2 (0.7)"}, {"measurement": "VRS Itch Visit Mean (SD)", "setting": "[1]; Study Week 38, N=17", "result": "1.4 (0.6)"}, {"measurement": "VRS Itch Mean (SD) Change from Baseline", "setting": "[1]; Study Week 42, N=17", "result": "−1.4 (0.6)"}, {"measurement": "VRS Itch Visit Mean (SD)", "setting": "[1]; Study Week 42, N=17", "result": "1.2 (0.6)"}, {"measurement": "VRS Itch Mean (SD) Change from Baseline", "setting": "[1]; Study Week 46, N=17", "result": "−1.4 (0.6)"}, {"measurement": "VRS Itch Visit Mean (SD)", "setting": "[1]; Study Week 46, N=17", "result": "1.2 (0.7)"}, {"measurement": "VRS Itch Mean (SD) Change from Baseline", "setting": "[1]; Study Week 50, N=15", "result": "−1.5 (0.7)"}, {"measurement": "VRS Itch Visit Mean (SD)", "setting": "[1]; Study Week 50, N=15", "result": "1.1 (0.6)"}, {"measurement": "half-life", "setting": "[2]", "result": "2 to 3", "unit": "h"}]}]}
